Where two headings read alike, the source gives them in different places.
Experiments:
[1] = test system: mongrel dogs; test: Electrophysiological (EKG) effects of ondansetron enantiomers and racemate in dogs, rising cumulative doses; conditions: for Death or survival of dogs during or shortly after the experiment: four dogs per treatment, 0-4.0 mg/kg cumulative
Experimental: (§1) An investigation was conducted to determine the effect of racemic ondansetron and the R(+)- and S(−)-enanatiomers of ondansetron in causing cardiac arrhythmias (cardiotoxicity) resulting from a lengthening of the cardiac action potential.
(§2) The order of administration was randomized to ensure that each dog received only one treatment.

[2] = test system: mongrel dogs; conditions: dog, in vivo
Experimental: as §1, §2

Structure (SMILES) | Prolongation of QTc interval, compared among treatments ([1]; dogs, comparison in words of the three treatments) | Death or survival of dogs during or shortly after the experiment [1] | Prolongation of QTc interval, compared among treatments [2] | Cardiotoxicity, compared among treatments ([1]; conclusion from QTc and mortality data in dogs) | QTc Interval ([2]; 4 mg/kg) [s]
Cc1nccn1CC1CCc2c(c3ccccc3n2C)C1=O (racemic) [R,S-Ondansetron, ondansetron] | most prolonged | survived | – | – | –
Cc1nccn1C[C@H]1CCc2c(c3ccccc3n2C)C1=O [R(+)-Ondansetron, R(+) ondansetron] | – | survived | shortest | less cardiotoxicity than either S(−) ondansetron or racemic ondansetron | –
Cc1nccn1C[C@@H]1CCc2c(c3ccccc3n2C)C1=O [S(−)-Ondansetron, S(−) ondansetron] | – | – | most prolonged | – | 0.44 ± 0.03
